Measurements reported in patent publication US12398154B2, “Azaquinazoline pan-KRas inhibitors” (Mirati Therapeutics, Inc., priority 2020, dated 2025).

Tests used:
KRas G12R = KRas G12R (Homo sapiens, UniProt P01116, G12R); experiment: biochemical;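 note: TR-FRET displacement assay of compound binding to KRas, read after one hour at room temperature, potency from a four-parameter fit of percent-of-control values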
Protocol: (§1) The ability of a compound to bind to KRas was measured using a TR-FRET displacement assay. […] After a 60-minute incubation at room temperature, the reaction was measured using a BMG LABTECH CLARIO star Plus via TR-FRET. […] The POC values were fit to a 4-parameter IC50 equation and the IC50 value reported.

pERK in H727 cells = experiment: Inhibition of KRas phosphorylation of ERK (Cisbio HTRF pERK assay); details: Homo sapiens, NCI-H727, read-out: Inhibition (HTRF IC50) of KRas-mediated Phosphorylation of ERK, H727
pERK in HCT116 cells = experiment: as above; details: Homo sapiens, HCT-116, read-out: Inhibition (HTRF IC50) of KRas-mediated Phosphorylation of ERK, HCT116
pERK in A549 cells = experiment: as above; details: Homo sapiens, A549, read-out: Inhibition (HTRF IC50) of KRas-mediated Phosphorylation of ERK, A549
KRas G12D = KRas G12D (Homo sapiens, UniProt P01116, G12D); experiment: biochemical;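 note: TR-FRET displacement binding assay on KRas, read after a one-hour incubation at room temperature, IC50 fitted from percent-of-control values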
Protocol: as §1

pERK in H358 cells = experiment: Inhibition of KRas phosphorylation of ERK (Cisbio HTRF pERK assay); details: Homo sapiens, NCI-H358, read-out: Inhibition (HTRF IC50) of KRas-mediated Phosphorylation of ERK, H358
Protocol: To harvest cells from flask using 0.05% Trypsin/EDTA solution. Add 10 mL of media to stop trypsinizing. Pipette the cells into a conical bottom 50 mL centrifuge tube and centrifuge 5 min×1000 rpm. • 2. Re-suspend the cell pellet in media, take a cell count, and then adjust the cell density using fresh media. • 3. Seed 6,000 cells into cell culture plate with 50 μL media. […] Incubate cell plate overnight in a 37° C., 5% CO2 incubator. • Compound titrations • 1. Use Tecan to complete the compound addition. Compounds start from 10 uM top, 3-fold dilution, and 10 doses. The final DMSO concentration is 0.8%. Dispensed 0.2 uM Trametinib as Min control. • 2. Incubate cell plate for 3 hrs in the incubator. • Detection with cisbio pERK HTRF kit • 1. […] At the end of the compound treatment, flick-off the media. • 3. Add 35 μL of lysis buffer per well using a Multidrop Combi. Then place on a plate agitator shaking at 300 rpm at 4° C. for 40 mins. • 4. Make up the HTRF antibody buffer. For each assay plate, mix 50 μL of d2-conjugate antibody with 950 μL of detection buffer. Similarly, mix 50 μL of Cryptate antibody with 950 μL of detection buffer. Then mix the two diluted antibodies together. • 5. Dispense 3.4 μL the antibody buffer to wells of an empty assay plate. Seal the plate and centrifuge plate 30 sec×1000 rpm. • 6. At the end of the 4° C. lysis, centrifuge the lysate plates 3 mins×1500 rpm. • 7. Use the Bravo to transfer 13.6 μL of lysate from cell culture plate to assay plate.
Then incubate assay plate for 2 hrs at room temperature. […] At the end of incubation, read plate on the Envision after centrifuging plate 30 sec× • 1000 rpm.

pERK in PSN1 cells = experiment: as above; details: Homo sapiens, PSN1, 3 h, read-out: Inhibition (HTRF IC50) of KRas-mediated Phosphorylation of ERK, PSN1
pERK in H460 cells = experiment: as above; details: Homo sapiens, NCI-H460, read-out: Inhibition (HTRF IC50) of KRas-mediated Phosphorylation of ERK, H460
pERK in MKN1 cells = experiment: as above; details: Homo sapiens, MKN-1, 3 h, read-out: Inhibition (HTRF IC50) of KRas-mediated Phosphorylation of ERK, MKN1
pERK in ASPC1 cells = experiment: as above; details: Homo sapiens, ASPC1, read-out: Inhibition (HTRF IC50) of KRas-mediated Phosphorylation of ERK, AsPC-1
KRas G12V = KRas G12V (Homo sapiens, UniProt P01116, G12V); experiment: biochemical;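 note: KRas binding measured by TR-FRET displacement at room temperature, IC50 fitted from percent of control values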
Chain of KRas G12V (P01116 1-169 isoform P01116-2 G12V): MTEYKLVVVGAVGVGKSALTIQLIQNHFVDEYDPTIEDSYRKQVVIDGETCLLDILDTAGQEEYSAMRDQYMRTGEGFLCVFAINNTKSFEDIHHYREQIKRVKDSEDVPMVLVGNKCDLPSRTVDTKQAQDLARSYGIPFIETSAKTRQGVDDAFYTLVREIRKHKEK
Protocol: as §1

Chain of KRas G12R (P01116 1-169 isoform P01116-2 G12R): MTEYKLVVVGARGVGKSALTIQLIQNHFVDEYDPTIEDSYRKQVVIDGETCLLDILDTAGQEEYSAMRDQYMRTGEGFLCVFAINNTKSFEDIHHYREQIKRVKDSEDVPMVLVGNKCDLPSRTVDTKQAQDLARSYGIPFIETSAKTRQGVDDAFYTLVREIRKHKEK
Chain of KRas G12D (P01116 1-169 isoform P01116-2 G12D): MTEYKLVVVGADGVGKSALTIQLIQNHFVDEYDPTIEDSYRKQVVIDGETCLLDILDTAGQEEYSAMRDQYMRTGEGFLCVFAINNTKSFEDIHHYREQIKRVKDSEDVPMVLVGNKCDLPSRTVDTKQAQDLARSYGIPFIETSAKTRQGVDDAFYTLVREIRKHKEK

| IC50 (KRas G12R) | IC50 (pERK in H727 cells) | IC50 (pERK in HCT116 cells) | IC50 (pERK in A549 cells) | IC50 (KRas G12D) | IC50 (pERK in H358 cells) | IC50 (pERK in PSN1 cells) | IC50 (pERK in H460 cells) | IC50 (pERK in MKN1 cells) | IC50 (pERK in ASPC1 cells) | IC50 (KRas G12V) | SMILES |
| --- | --- | --- | --- | --- | --- | --- | --- | --- | --- | --- | --- |
| ≤ 2 nM | 46 nM | 470 nM | 167 nM | 3 nM | 62 nM | 2240 nM | 203 nM | 4 nM | 23 nM | ≤ 2 nM | CCc1c(F)ccc2cc(O)cc(-c3ncc4c(N5CCCSCC5)nc(OC[C@@]56CCCN5C[C@H](F)C6)nc4c3F)c12 [Example 342, 5-ethyl-6-fluoro-4-(8-fluoro-2-(((2R,7aS)-2-fluorohexahydro-1H-pyrrolizin-7a-yl)methoxy)-4-(1,4-thiazepan-4-yl)pyrido[4,3-d]pyrimidin-7-yl)naphthalen-2-ol] |
| ≤ 2 nM | 15 nM | 41 nM | 27 nM | ≤ 2 nM | 3 nM | 1330 nM | 26 nM | 15 nM | 27 nM | ≤ 2 nM | Oc1cc(-c2ncc3c(N4CCCC5(CC(O)C5)C4)nc(OC[C@@]45CCCN4C[C@H](F)C5)nc3c2F)c2c(Br)c(F)ccc2c1 (stereo partly drawn) [Example 407, 6-(7-(8-bromo-7-fluoro-3-hydroxynaphthalen-1-yl)-8-fluoro-2-(((2R,7aS)-2-fluorohexahydro-1H-pyrrolizin-7a-yl)methoxy)pyrido[4,3-d]pyrimidin-4-yl)-6-azaspiro[3.5]nonan-2-ol] |
| ≤ 2 nM | 26 nM | 70 nM | 39 nM | 3 nM | 16 nM | 1500 nM | 73 nM | 4 nM | 61 nM | ≤ 2 nM | Oc1cc(-c2ncc3c(N4CC5CC(O)C(C5)C4)nc(OC[C@@]45CCCN4C[C@H](F)C5)nc3c2F)c2c(Cl)c(F)ccc2c1 (stereo partly drawn) [Example 421, 3-(7-(8-chloro-7-fluoro-3-hydroxynaphthalen-1-yl)-8-fluoro-2-(((2R,7aS)-2-fluorotetrahydro-1H-pyrrolizin-7a(5H)-yl)methoxy)pyrido[4,3-d]pyrimidin-4-yl)-3-azabicyclo[3,2,1]octan-6-ol] |
| ≤ 2 nM | 6 nM | 81 nM | 11 nM | ≤ 2 nM | 2 nM | 4830 nM | 53 nM | 8 nM | 4 nM | ≤ 2 nM | CCc1c(F)ccc2cc(O)cc(-c3ncc4c(N5CCCn6nc(C(=O)N(C)C)c(Cl)c6C5)nc(OC[C@@]56CCCN5C[C@H](F)C6)nc4c3F)c12 [Example 504, 3-chloro-5-(7-(8-ethyl-7-fluoro-3-hydroxynaphthalen-1-yl)-8-fluoro-2-(((2R,7aS)-2-fluorohexahydro-1H-pyrrolizin-7a-yl)methoxy)pyrido[4,3-d]pyrimidin-4-yl)-N,N-dimethyl-5,6,7,8-tetrahydro-4H-pyrazolo[1,5-a][1,4]diazepine-2-carboxamide] |
| 4 nM | 262 nM | 341 nM | 345 nM | ≤ 2 nM | 40 nM | 1950 nM | 179 nM | 7 nM | 25 nM | ≤ 2 nM | CCc1c(F)ccc2cc(O)cc(-c3ncc4c(N5CCCC6(CCS(=O)(=O)C6)C5)nc(OC[C@@]56CCCN5C[C@H](F)C6)nc4c3F)c12 (stereo partly drawn) [Example 507, 7-(7-(8-ethyl-7-fluoro-3-hydroxynaphthalen-1-yl)-8-fluoro-2-(((2R,7aS)-2-fluorohexahydro-1H-pyrrolizin-7a-yl)methoxy)pyrido[4,3-d]pyrimidin-4-yl)-2-thia-7-azaspiro[4.5]decane 2,2-dioxide] |
| ≤ 2 nM | 456 nM | 2840 nM | 865 nM | ≤ 2 nM | 180 nM | ≥ 10000 nM | 1570 nM | 67 nM | 61 nM | ≤ 2 nM | CCc1c(F)ccc2cc(O)cc(-c3ncc4c(N5CCCn6nc(C(=O)N7CCN(C)CC7)cc6C5)nc(OC[C@@]56CCCN5C[C@H](F)C6)nc4c3F)c12 [Example 477, (5-(7-(8-ethyl-7-fluoro-3-hydroxynaphthalen-1-yl)-8-fluoro-2-(((2R,7aS)-2-fluorotetrahydro-1H-pyrrolizin-7a(5H)-yl)methoxy)pyrido[4,3-d]pyrimidin-4-yl)-5,6,7,8-tetrahydro-4H-pyrazolo[1,5-a][1,4]diazepin-2-yl)(4-methylpiperazin-1-yl)methanone] |
| ≤ 2 nM | 34 nM | 396 nM | 80 nM | ≤ 2 nM | 19 nM | 4810 nM | 149 nM | 24 nM | 7 nM | ≤ 2 nM | CCc1c(F)ccc2cc(O)cc(-c3ncc4c(N5CCCc6nn(C(=O)N(C)C)cc6C5)nc(OC[C@@]56CCCN5C[C@H](F)C6)nc4c3F)c12 [Example 353, 5-(7-(8-ethyl-7-fluoro-3-hydroxynaphthalen-1-yl)-8-fluoro-2-(((2R,7aS)-2-fluorohexahydro-1H-pyrrolizin-7a-yl)methoxy)pyrido[4,3-d]pyrimidin-4-yl)-N,N-dimethyl-5,6,7,8-tetrahydropyrazolo[4,3-c]azepine-2(4H)-carboxamide] |
| 4 nM | 313 nM | 763 nM | 629 nM | 3 nM | 113 nM | 5130 nM | 404 nM | 37 nM | 73 nM | 3 nM | CCc1c(F)ccc2cc(O)cc(-c3ncc4c(N5CCC[C@@](C)(O)C5)nc(OC[C@]56CCCN5[C@@H](COC(=O)N(C)C)CC6)nc4c3F)c12 [Example 362, ((3R,7aR)-7a-(((7-(8-ethyl-7-fluoro-3-hydroxynaphthalen-1-yl)-8-fluoro-4-((R)-3-hydroxy-3-methylpiperidin-1-yl)pyrido[4,3-d]pyrimidin-2-yl)oxy)methyl)hexahydro-1H-pyrrolizin-3-yl)methyl dimethylcarbamate] |
| ≤ 2 nM | 24 nM | 128 nM | 91 nM | ≤ 2 nM | 7 nM | 5930 nM | 128 nM | 4 nM | 60 nM | ≤ 2 nM | CCc1c(F)ccc2cc(O)cc(-c3ncc4c(N5CCCOC(CO)C5)nc(OC[C@@]56CCCN5C[C@H](F)C6)nc4c3F)c12 (stereo partly drawn) [Example 343, 5-ethyl-6-fluoro-4-(8-fluoro-2-(((2R,7aS)-2-fluorotetrahydro-1H-pyrrolizin-7a(5H)-yl)methoxy)-4-(2-(hydroxymethyl)-1,4-oxazepan-4-yl)pyrido[4,3-d]pyrimidin-7-yl)naphthalen-2-ol] |
| ≤ 2 nM | 16 nM | 23 nM | 14 nM | ≤ 2 nM | 4 nM | 357 nM | 18 nM | 1 nM | 3 nM | ≤ 2 nM | C[C@@]1(O)CCCN(c2nc(OC[C@@]34CCCN3C[C@H](F)C4)nc3c(F)c(-c4cc(O)cc5ccc(F)c(Br)c45)ncc23)C1 [Example 399, (R)-1-(7-(8-bromo-7-fluoro-3-hydroxynaphthalen-1-yl)-8-fluoro-2-(((2R,7aS)-2-fluorohexahydro-1H-pyrrolizin-7a-yl)methoxy)pyrido[4,3-d]pyrimidin-4-yl)-3-methylpiperidin-3-ol] |
| 3 nM | 64 nM | 168 nM | 48 nM | 5 nM | 21 nM | ≥ 10000 nM | 66 nM | 13 nM | 47 nM | 3 nM | CCc1c(F)ccc2cc(O)cc(-c3ncc4c(N5CCOC[C@@]6(C5)CC6(F)F)nc(OC[C@@]56CCCN5C[C@H](F)C6)nc4c3F)c12 [Example 498, 4-(4-((S)-1,1-difluoro-5-oxa-8-azaspiro[2.6]nonan-8-yl)-8-fluoro-2-(((2R,7aS)-2-fluorohexahydro-1H-pyrrolizin-7a-yl)methoxy)pyrido[4,3-d]pyrimidin-7-yl)-5-ethyl-6-fluoronaphthalen-2-ol] |
